Test [1] concerns ADCC. As to the kind of experiment: Antibody-dependent cell-mediated cytotoxicity (ADCC) in combination with anti-CD20 antibodies. The class given is cell-based.
Test [2] relates to enriched B-cells from healthy volunteers. The test is described as follows: Inhibition of B-cell antibody production (IgG and IgM AlphaLISA). To be noted: for IC50: Homo sapiens, B-cell, 168 h. (Bead proximity is the source of the signal in Alpha formats.)
Experimental: B-cells were enriched from leukocyte concentrate of TrimaAccel® LRS chamber recovered after a plateletpheresis procedure from healthy volunteers (Stanford Blood Center, Palo Alto, Calif.) using the Straight from LRSC CD19 Microbead Kit (Miltenyi Biotech). […] IC50 was calculated in GraphPad Prism with non-linear regression using “log (inhibitor) vs. response—Variable slope (four parameters)” analysis with no constraints.
In test [3] the test system is anti-GBM glomerulonephritis. As to the kind of experiment: Mouse anti-GBM glomerulonephritis model. The class given is in vivo. On the procedure: The mouse anti-GBM glomerulonephritis model involves antibody mediated autoimmunity, and the model is histologically and mechanistically similar to glomerulonephritis in humans. The model also includes kidney deposition of immune complexes (IC), targeting glomerular basement membrane. The efficacy of Compound (I) (also referred to as PRN1008) relative to the corticosteroid dexamethasone (Dex) was tested in a mouse anti-GBM glomerulonephritis model according to the design shown in FIG. 1. Briefly, to induce glomerulonephritis, mice were pre-sensitized with sheep IgG/FCA (Study Day −5). Five days later (Study Day 0), the mice received anti-GBM sheep IgG. Treatment with vehicle, Compound (I), or Dex with various dosage regimes (Compound (I): 10 mg/kg, 20 mg/kg, or 40 mg/kg QD or 20 mg/kg BID; Dex: 1 mg/kg QD; Vehicle: QD or BID) began at Study Day −1, one day prior to injection with anti-GBM sheep IgG. Treatment continued until Study Day 10, for […] treatment in total. Urine protein analysis was conducted on Study Days −6, −4, −1, 1, 3, 6, 8, and 10. Following Study Day 10, mice serum BUN levels were analyzed as a measure of kidney function, and kidney histology was performed.

Test [4] has as its system CD20+ B-cells in human whole blood. The test is described as follows: B-cell activation: anti-IgM-induced CD69 expression on CD20+ B-cells in human whole blood (flow cytometry). The test is classed as cell-based. To be noted: read-out: IC50 for inhibition of CD69 B-cell expression. The method, then:
Compound (I) can inhibit B-cell activation, BCR dependent B-cell proliferation, and de novo antibody production. To determine the functional activity of Compound (I), the ability of the compound to inhibit B-cell activation as assessed by anti-IgM-induced CD69 expression in CD20+ B-cells in human whole blood was determined (FIG. 7). […]. As an additional measure of the effects of Compound (I) on B-cell function, the ability of Compound (I) to inhibit B-cell receptor (BCR)-induced human B-cell proliferation was determined. […]. A randomized multicenter trial comparing low-dose prednisolone versus observation for prevention of recurrences in adult immune thrombocytopenia. Clin Appl Thromb Hemost 24: 867-873.).
(In general: In flow cytometry, cells or beads pass a laser one at a time.)

Setting [5] is: 10, 20 or 40 mg/kg QD or 20 mg/kg BID, Study Day -1 to 10.

SMILES strings stand for the structures. Read-outs that look alike come from different tables or passages of the source.

This is an account of results in US20210205312A1, “TREATMENT OF MEMBRANOUS NEPHROPATHY, IGG4-RELATED DISEASE, AND ANTIPHOSPHOLIPID SYNDROME USING BTK INHIBITOR 2-[(3R)-3-[4-AMINO-3-(2-FLUORO-4-PHENOXY-PHENYL)PYRAZOLO[3,4-d]PYRIMIDIN-1-YL]PIPERIDINE-1-CARBONYL]-4-METHYL-4-[4-(OXETAN-3-YL)PIPERAZIN-1-YL]PENT-2-ENENITRILE” (Principia Biopharma Inc., priority 2020, published 2021).

On to `CC(C)(C=C(C#N)C(=O)N1CCC[C@@H](n2nc(-c3ccc(Oc4ccccc4)cc3F)c3c(N)ncnc32)C1)N1CCN(C2COC2)CC1` [Compound (I), 2-[(3R)-3-[4-amino-3-(2-fluoro-4-phenoxy-phenyl)pyrazolo[3,4-d]pyrimidin-1-yl]piperidine-1-carbonyl]-4-methyl-4-[4-(oxetan-3-yl)piperazin-1-yl]pent-2-enenitrile], for which the “effect on ADCC” value in test [1] is listed as “did not block”. Besides, in test [2] (CpG, TNP-LPS or anti-CD40+IL-21 stimulation, 7 days), the “T-dependent and T-independent antibody production (IgG and IgM)” value is on record as “inhibited”. Besides, the IC50 (commonly the concentration that gives 50% inhibition) turned out to be 50 ± 90 nM in test [2] (read-out: IgG antibody production IC50, CpG (TLR-9 agonist) stimulation, T-independent, 7 days); 300 ± 600 nM in test [2] (read-out: IgG antibody production IC50, TNP-LPS stimulation, T-independent, 7 days); 20 ± 20 nM in test [2] (read-out: IgG antibody production IC50, anti-CD40 + IL-21 stimulation (T-cell dependent), 7 days); 1 ± 1 nM in test [2] (read-out: IgM antibody production IC50, CpG (TLR-9 agonist) stimulation, T-independent, 7 days); 200 ± 600 nM in test [2] (read-out: IgM antibody production IC50, TNP-LPS stimulation, T-independent, 7 days); 800 ± 1000 nM in test [2] (read-out: IgM antibody production IC50, anti-CD40 + IL-21 stimulation (T-cell dependent), 7 days). Further, the IC50 in test [4] is 126 ± 32 nM. Also, in test [3] (setting [5]), the “inhibition of kidney weight gain (surrogate for kidney inflammation)” value was “dose dependent inhibition”. For the same compound, the “inhibition of severe proteinuria” value in test [3] (setting [5]) is given as “dose dependent inhibition”. Also, the “inhibition of serum blood urea nitrogen (BUN) levels” value in test [3] (10, 20 or 40 mg/kg QD or 20 mg/kg BID, Study Day -1 to 10, BUN after Day 10) is “dose dependent inhibition”. Besides, the “kidney pathology (histology)” value in test [3] (compared with Dex 1 mg/kg QD) is recorded as “significantly reduced kidney pathology, superior to a steroid comparator (Dex)”. Further, the “proteinuria during the study” value in test [3] (urine protein analysis up to Study Day 10) is listed as “reduced proteinuria”.
